From publication PMC4421842 (Nature Communications, 2015)
In brackets after ≈: the same amount, converted by molar mass.

Tests used:
[1] = parameters: method as in PMID 24545057; details: dosed subcutaneously, orally or by intraperitoneal injection; cited from earlier work
[2] = test system: K. pneuomoniae, S. aureus or Mycobacterium tuberculosis; parameters: method as in PMID 24545057; details: cited from earlier work
[3] = Aqueous solubility determination; details: PBS, pH 7.4
Protocol: Three independent replicates of each compound were performed.

[4] = test system: FQR S. aureus (NRS3, FQR); assay: MIC, microdilution broth assay, FQR MRSA NRS3; format: cell-based; details: NRS3; S84L GyrA and S80F ParC; three independent replicates
[5] = test system: WT S. aureus (ATCC 29213, WT); assay: microbe, parasite or virus in culture; format: cell-based; details: WT GyrA and WT ParC, three independent replicates
human topoisomerase II = biological target: T1, human topoisomerase II (Homo sapiens, UniProt P11388); assay: Human topoisomerase decatenation assay; format: biochemical
T1 construct: purchased Inspiralis
Protocol: The decatenation assay was performed with the Human Topo II Decatenation Assay Kit (Inspiralis), according to the manufacturer's instructions, with minor modifications. First, a master mix was made containing 2 μl of 10 × assay buffer (500 mM Tris-HCl pH 7.5, 1250, mM NaCl, 100 mM MgCl2, 50 mM DTT, 1,000 μg ml^−1 albumin), 0.67 μl of 30 mM ATP, 1.34 μl of 0.1 ng μl^−1 kDNA, and 14.3 μl of nuclease-free water per sample is made. DMSO or 30 × compound is added to a 0.5-ml Eppendorf tube (0.67 μl per tube). The master mix is then added to each tube (18.3 μl per tube). Finally, 1 U of human topoisomerase (1 μl of 1 U μl^−1 stock) is added to each tube for a final volume of 20 μl. The tubes are then incubated at 37 °C for 30 min. Reactions are stopped by the addition of 20 μl of 24:1 chloroform:isoamyl alcohol and 20 μl of stop dye (40% sucrose, 1 mM EDTA, 100 mM Tris-HCl pH 7.5, 0.5 μg ml^−1 bromophenol blue). Samples were run on 1% agarose gels containing 0.5 μg ml^−1 ethidium bromide for 1 h at 110 V or until the dye front was approximately halfway down the gel. Gels were imaged on a Molecular Imager Gel Doc XR+ (Biorad).

T1 sequence (P11388 whole entry): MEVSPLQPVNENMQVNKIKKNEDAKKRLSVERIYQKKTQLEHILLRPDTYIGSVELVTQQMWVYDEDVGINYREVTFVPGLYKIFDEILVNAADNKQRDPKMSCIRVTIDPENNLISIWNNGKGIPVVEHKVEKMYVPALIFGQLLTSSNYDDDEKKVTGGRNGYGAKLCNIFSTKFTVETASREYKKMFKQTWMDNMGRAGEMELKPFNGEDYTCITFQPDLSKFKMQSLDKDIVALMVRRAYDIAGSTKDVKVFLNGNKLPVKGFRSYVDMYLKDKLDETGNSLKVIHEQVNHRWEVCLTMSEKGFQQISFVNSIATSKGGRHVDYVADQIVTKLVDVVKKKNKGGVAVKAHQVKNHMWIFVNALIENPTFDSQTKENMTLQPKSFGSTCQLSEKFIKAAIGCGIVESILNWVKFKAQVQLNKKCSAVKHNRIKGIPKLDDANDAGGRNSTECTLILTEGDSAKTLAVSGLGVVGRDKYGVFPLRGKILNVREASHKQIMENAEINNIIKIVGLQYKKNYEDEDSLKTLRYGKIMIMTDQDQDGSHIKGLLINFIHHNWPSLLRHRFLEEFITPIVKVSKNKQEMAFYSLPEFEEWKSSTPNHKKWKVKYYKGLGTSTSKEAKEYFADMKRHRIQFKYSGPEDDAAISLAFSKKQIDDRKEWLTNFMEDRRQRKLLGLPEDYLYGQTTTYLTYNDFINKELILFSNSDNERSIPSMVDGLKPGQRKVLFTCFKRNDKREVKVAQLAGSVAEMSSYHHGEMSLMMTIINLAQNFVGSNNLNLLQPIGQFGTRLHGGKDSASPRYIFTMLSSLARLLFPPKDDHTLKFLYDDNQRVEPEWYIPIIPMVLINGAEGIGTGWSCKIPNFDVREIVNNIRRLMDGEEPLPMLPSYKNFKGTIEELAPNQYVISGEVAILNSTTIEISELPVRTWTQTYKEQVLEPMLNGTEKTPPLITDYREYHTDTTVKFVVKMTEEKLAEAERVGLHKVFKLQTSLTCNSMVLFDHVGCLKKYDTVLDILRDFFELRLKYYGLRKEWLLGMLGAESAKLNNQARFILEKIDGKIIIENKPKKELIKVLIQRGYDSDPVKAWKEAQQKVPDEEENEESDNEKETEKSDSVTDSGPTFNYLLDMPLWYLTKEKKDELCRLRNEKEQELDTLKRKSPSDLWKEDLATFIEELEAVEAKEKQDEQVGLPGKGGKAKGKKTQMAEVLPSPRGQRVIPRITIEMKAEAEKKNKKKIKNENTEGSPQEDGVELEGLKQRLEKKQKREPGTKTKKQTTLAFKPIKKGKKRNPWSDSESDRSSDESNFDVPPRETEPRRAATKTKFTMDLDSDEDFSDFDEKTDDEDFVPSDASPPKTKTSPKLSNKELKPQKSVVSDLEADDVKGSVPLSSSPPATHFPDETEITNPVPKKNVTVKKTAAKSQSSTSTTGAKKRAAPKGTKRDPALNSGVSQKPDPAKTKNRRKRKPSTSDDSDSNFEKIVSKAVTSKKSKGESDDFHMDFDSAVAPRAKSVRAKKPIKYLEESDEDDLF

Cc1cc(=O)n2c3c(c4c(cc13)c(CO)cc(=O)n4C)OC2 [NM, Nybomycin]
tolerability in mice [1]: well tolerated | activity in mice infected with various bacteria [2]: no activity

CCCc1cc(=O)n(C)c2c3c4c(cc12)c(CCC)cc(=O)n4CO3 [compound 14]
solubility at 1 h [3]: < 1 µM | MIC against S. aureus NRS3 [4]: 32 µg/mL (≈ 94.6 µM) | MIC against S. aureus 29213 ([5]; ATCC 29213): > 32 µg/mL | MIC ([5]; Staphylococcus aureus, ATCC29213, ATCC 29213, read-out: MIC against S. aureus 29213): > 32 µg/mL

COc1cccc2c1C(=O)c1c(O)c3c(c(O)c1C2=O)C[C@@](O)(C(=O)CO)C[C@@H]3O[C@H]1C[C@H](N)[C@H](O)[C@H](C)O1 [doxorubicin, reference compound]
concentration inhibiting human topoisomerase II (human topoisomerase II): 3 µM
